Laboratory results from paper PMC6271529, “Studies on the Anticonvulsant Activity and Influence on GABA-ergic Neurotransmission of 1,2,4-Triazole-3-thione-Based Compounds” (Molecules, 2014).
Where two headings read alike, the source gives them in different places.

Key:
[1] = tested on: maximal electroshock-induced seizures; assay: Maximal electroshock-induced seizure (MES) test in mice; type: in vivo, mouse; conditions: for responders at 300 mg/kg / ED50: Mus musculus, ip; for responders at 300 mg/kg: read-out: percent of animals protected against MES-induced seizures; for anticonvulsant activity (in words): MES test; for time to peak of the anticonvulsant action: after i.p. administration; for PI (TD50/ED50): protective index; for onset of action: significant protection as early as 15 min after parenteral administration
Protocol: Additionally, all efforts were made to minimize animal suffering and to use only the number of animals necessary to produce reliable scientific data.
In the initial stage of the study, groups of eight mice were supplied with the compounds (administered intraperitoneally) in a dose of 300 mg/kg and then exposed to electrical impulse at fixed intervals (15, 30, 60, 120 min).
Each mouse was used only once.
Fresh drug solutions were prepared on each day of experimentation and administered at 15, 30, 60 and 120 min. before the initiation of maximal electroconvulsions. Electroconvulsions were produced by a current (0.2 s stimulus duration; 500 V, 50 Hz, fixed current intensity of 25 mA) delivered via ear-clip electrodes by a Rodent Shocker generator (constant-current stimulator Type 221, Hugo Sachs Elektronik, Freiburg, Germany). The criterion for the occurrence of seizure activity was the tonic hind limb extension. The animals were administered with a constant dose of 300 mg/kg of each of the examined compounds and were subjected to MES-induced seizures. […] The animals were administered with different doses of the tested compounds so as to obtain a variable percentage of protection against maximal electroconvulsions, allowing the construction of dose-response relationship lines for each examined compound administered i.p. at various pretreatment times, according to Litchfield and Wilcoxon. Each ED50 value represents the dose of the studied compounds that is required to protect 50% of the animals tested against MES-induced seizures.

[2] = 300 mg/kg i.p., pretreatment time 15 min, mice
[3] = 300 mg/kg i.p., pretreatment time 30 min, mice
[4] = 300 mg/kg i.p., pretreatment time 60 min, mice
[5] = 300 mg/kg i.p., pretreatment time 120 min, mice
[6] = 0.25 h, 300 mg/kg i.p., pretreatment time 15 min, mice
[7] = 0.5 h, 300 mg/kg i.p., pretreatment time 30 min, mice
[8] = 1 h, 300 mg/kg i.p., pretreatment time 60 min, mice
[9] = 2 h, 300 mg/kg i.p., pretreatment time 120 min, mice
[10] = pretreatment time 15 min, mice, read-out: ED50 ± S.E. (MES test)
[11] = pretreatment time 30 min, mice, read-out: ED50 ± S.E. (MES test)
[12] = pretreatment time 60 min, mice, read-out: ED50 ± S.E. (MES test)
[13] = pretreatment time 120 min, mice, read-out: ED50 ± S.E. (MES test)
[14] = chimney TD50 / MES ED50, pretreatment time 15 min
[15] = chimney TD50 / MES ED50, pretreatment time 30 min
[16] = chimney TD50 / MES ED50, pretreatment time 60 min
[17] = chimney TD50 / MES ED50, pretreatment time 120 min

Fc1cccc(-n2c(-c3cccc(Cl)c3)n[nH]c2=S)c1 [Compound 2a, 5-(3-Chlorophenyl)-4-(3-fluorophenyl)-2,4-dihydro-3H-1,2,4-triazole-3-thione]
p/t, number of animals protected against MES-induced seizures / number tested [1, 2]: 0/8
p/t, number of animals protected against MES-induced seizures / number tested [1, 3]: 0/8
p/t, number of animals protected against MES-induced seizures / number tested [1, 4]: 0/8
p/t, number of animals protected against MES-induced seizures / number tested [1, 5]: 0/8
responders at 300 mg/kg [1, 6]: 0%
responders at 300 mg/kg [1, 7]: 0%
responders at 300 mg/kg [1, 8]: 0%
responders at 300 mg/kg [1, 9]: 0%
melting point: 221 to 222 °C

Fc1ccc(-n2c(-c3cccc(Cl)c3)n[nH]c2=S)cc1 [Compound 3a, 5-(3-Chlorophenyl)-4-(4-fluorophenyl)-2,4-dihydro-3H-1,2,4-triazole-3-thione]
acute adverse effects at the screening dose ([1]; 300 mg/kg i.p., mice, protective effect in MES could not be established): acute adverse effects
anticonvulsant activity (in words) ([1]; mice): most potent activity
ED50 [1, 10]: 35.2 ± 5.3 mg/kg
ED50 [1, 11]: 93.6 ± 9.4 mg/kg
ED50 [1, 12]: > 200 mg/kg
ED50 [1, 13]: > 200 mg/kg
time to peak of the anticonvulsant action ([1]; MES, mice): 15 min
anticonvulsant activity at decreased doses ([1]; doses lowered to those not inducing neurotoxic effects, MES, mice): retained its anticonvulsant activity
anticonvulsant activity relative to valproate ([1]; from ED50 values, MES): approximately five and a half times higher than that of valproate
PI (TD50/ED50) [1, 14]: 3.9
PI (TD50/ED50) [1, 15]: 1.6
onset of action ([1]; MES, mice): quick onset of action

S=c1[nH]nc(-c2cccc(Cl)c2)n1-c1ccc(Cl)cc1 [Compound 4a, 4-(4-Chlorophenyl)-5-(3-chlorophenyl)-2,4-dihydro-3H-1,2,4-triazole-3-thione]
p/t, number of animals protected against MES-induced seizures / number tested [1, 2]: 8/8
p/t, number of animals protected against MES-induced seizures / number tested [1, 3]: 8/8
p/t, number of animals protected against MES-induced seizures / number tested [1, 4]: 7/8
p/t, number of animals protected against MES-induced seizures / number tested [1, 5]: 7/8
responders at 300 mg/kg [1, 6]: 100%
responders at 300 mg/kg [1, 7]: 100%
responders at 300 mg/kg [1, 8]: 87.5%
responders at 300 mg/kg [1, 9]: 87.5%
ED50 [1, 10]: 90.1 ± 15.7 mg/kg
ED50 [1, 11]: 135 ± 19.8 mg/kg
ED50 [1, 12]: 171 ± 21.4 mg/kg
ED50 [1, 13]: 184 ± 28 mg/kg
PI (TD50/ED50) [1, 14]: 3.9
PI (TD50/ED50) [1, 15]: 2.7
PI (TD50/ED50) [1, 16]: 2.1
PI (TD50/ED50) [1, 17]: 2.0
onset of action ([1]; MES, mice): quick onset of action

S=c1[nH]nc(-c2cccc(Cl)c2)n1-c1ccc(I)cc1 [Compound 7a, 5-(3-Chlorophenyl)-4-(4-iodophenyl)-2,4-dihydro-3H-1,2,4-triazole-3-thione]
p/t, number of animals protected against MES-induced seizures / number tested [1, 2]: 0/8
p/t, number of animals protected against MES-induced seizures / number tested [1, 3]: 0/8
p/t, number of animals protected against MES-induced seizures / number tested [1, 4]: 0/8
p/t, number of animals protected against MES-induced seizures / number tested [1, 5]: 0/8
anticonvulsant activity (in words) ([1]; mice): inactive
responders at 300 mg/kg [1, 6]: 0%
responders at 300 mg/kg [1, 7]: 0%
responders at 300 mg/kg [1, 8]: 0%
responders at 300 mg/kg [1, 9]: 0%

Cc1ccccc1-n1c(-c2cccc(Cl)c2)n[nH]c1=S [Compound 8a, 5-(3-Chlorophenyl)-4-(2-methylphenyl)-2,4-dihydro-3H-1,2,4-triazole-3-thione]
p/t, number of animals protected against MES-induced seizures / number tested [1, 2]: 0/8
p/t, number of animals protected against MES-induced seizures / number tested [1, 3]: 0/8
p/t, number of animals protected against MES-induced seizures / number tested [1, 4]: 0/8
p/t, number of animals protected against MES-induced seizures / number tested [1, 5]: 0/8
responders at 300 mg/kg [1, 6]: 0%
responders at 300 mg/kg [1, 7]: 0%
responders at 300 mg/kg [1, 8]: 0%
responders at 300 mg/kg [1, 9]: 0%
melting point: 186 to 188 °C

Cc1cccc(-n2c(-c3cccc(Cl)c3)n[nH]c2=S)c1 [Compound 9a, 5-(3-Chlorophenyl)-4-(3-methylphenyl)-2,4-dihydro-3H-1,2,4-triazole-3-thione]
p/t, number of animals protected against MES-induced seizures / number tested [1, 2]: 0/8
p/t, number of animals protected against MES-induced seizures / number tested [1, 3]: 0/8
p/t, number of animals protected against MES-induced seizures / number tested [1, 4]: 0/8
p/t, number of animals protected against MES-induced seizures / number tested [1, 5]: 1/8
responders at 300 mg/kg [1, 6]: 0%
responders at 300 mg/kg [1, 7]: 0%
responders at 300 mg/kg [1, 8]: 0%
responders at 300 mg/kg [1, 9]: 12.5%
melting point: 200 to 201 °C

CC(=O)c1ccc(-n2c(-c3cccc(Cl)c3)n[nH]c2=S)cc1 [Compound 11a, 4-(4-Acetylphenyl)-5-(3-chlorophenyl)-2,4-dihydro-3H-1,2,4-triazole-3-thione]
p/t, number of animals protected against MES-induced seizures / number tested [1, 2]: 1/8
p/t, number of animals protected against MES-induced seizures / number tested [1, 3]: 1/8
p/t, number of animals protected against MES-induced seizures / number tested [1, 4]: 1/8
p/t, number of animals protected against MES-induced seizures / number tested [1, 5]: 0/8
responders at 300 mg/kg [1, 6]: 12.5%
responders at 300 mg/kg [1, 7]: 12.5%
responders at 300 mg/kg [1, 8]: 12.5%
responders at 300 mg/kg [1, 9]: 0%
melting point: 218 to 220 °C

Fc1ccc(-n2c(-c3ccc(Cl)cc3)n[nH]c2=S)c(F)c1 [Compound 13a, 5-(4-Chlorophenyl)-4-(2,4-difluorophenyl)-2,4-dihydro-3H-1,2,4-triazole-3-thione]
p/t, number of animals protected against MES-induced seizures / number tested [1, 2]: 8/8
p/t, number of animals protected against MES-induced seizures / number tested [1, 3]: 8/8
p/t, number of animals protected against MES-induced seizures / number tested [1, 4]: 8/8
p/t, number of animals protected against MES-induced seizures / number tested [1, 5]: 8/8
responders at 300 mg/kg [1, 6]: 100%
responders at 300 mg/kg [1, 7]: 100%
responders at 300 mg/kg [1, 8]: 100%
responders at 300 mg/kg [1, 9]: 100%
ED50 [1, 10]: 104 ± 15.8 mg/kg
ED50 [1, 11]: 100 ± 30.1 mg/kg
ED50 [1, 12]: 109 ± 11.9 mg/kg
ED50 [1, 13]: 80 ± 10.9 mg/kg
ED50 ([1]; pretreatment times 15, 30, 60, 120 min, read-out: ED50 (MES), range over pretreatment times): 80 to 109 mg/kg
time to peak of the anticonvulsant action ([1]; MES, mice): 120 min
PI (TD50/ED50) [1, 14]: 1.9
PI (TD50/ED50) [1, 15]: 1.9
PI (TD50/ED50) [1, 16]: 1.6
PI (TD50/ED50) [1, 17]: 2.7
onset of action ([1]; MES, mice): quick onset of action
melting point: 196 to 198 °C

S=c1n(CN2CCOCC2)nc(-c2cccc(Cl)c2)n1-c1ccc(Br)cc1 [Compound 19a, 4-(4-Bromophenyl)-5-(3-chlorophenyl)-2-(morpholin-4-ylmethyl)-2,4-dihydro-3H-1,2,4-triazole-3-thione]
p/t, number of animals protected against MES-induced seizures / number tested [1, 2]: 0/8
p/t, number of animals protected against MES-induced seizures / number tested [1, 3]: 0/8
p/t, number of animals protected against MES-induced seizures / number tested [1, 4]: 0/8
p/t, number of animals protected against MES-induced seizures / number tested [1, 5]: 0/8
responders at 300 mg/kg [1, 6]: 0%
responders at 300 mg/kg [1, 7]: 0%
responders at 300 mg/kg [1, 8]: 0%
responders at 300 mg/kg [1, 9]: 0%

S=c1n(CN2CCN(c3ccccc3)CC2)nc(-c2cccc(Cl)c2)n1-c1ccc(Br)cc1 [Compound 20a, 4-(4-Bromophenyl)-5-(3-chlorophenyl)-2-[(4-phenylpiperazin-1-yl)methyl]-2,4-dihydro-3H-1,2,4-triazole-3-thione]
p/t, number of animals protected against MES-induced seizures / number tested [1, 2]: 0/8
p/t, number of animals protected against MES-induced seizures / number tested [1, 3]: 0/8
p/t, number of animals protected against MES-induced seizures / number tested [1, 4]: 0/8
p/t, number of animals protected against MES-induced seizures / number tested [1, 5]: 0/8
responders at 300 mg/kg [1, 6]: 0%
responders at 300 mg/kg [1, 7]: 0%
responders at 300 mg/kg [1, 8]: 0%
responders at 300 mg/kg [1, 9]: 0%

Fc1ccc(N2CCN(Cn3nc(-c4cccc(Cl)c4)n(-c4ccc(Br)cc4)c3=S)CC2)cc1 [Compound 21a, 4-(4-Bromophenyl)-5-(3-chlorophenyl)-2-{[4-(4-fluorophenyl)piperazin-1-yl]methyl}-2,4-dihydro-3H-1,2,4-triazole-3-thione]
p/t, number of animals protected against MES-induced seizures / number tested [1, 2]: 0/8
p/t, number of animals protected against MES-induced seizures / number tested [1, 3]: 0/8
p/t, number of animals protected against MES-induced seizures / number tested [1, 4]: 0/8
p/t, number of animals protected against MES-induced seizures / number tested [1, 5]: 0/8
responders at 300 mg/kg [1, 6]: 0%
responders at 300 mg/kg [1, 7]: 0%
responders at 300 mg/kg [1, 8]: 0%
responders at 300 mg/kg [1, 9]: 0%

S=c1n(CN2CCOCC2)nc(-c2ccc(Cl)cc2)n1-c1ccc(Br)cc1 [Compound 28a, 4-(4-Bromophenyl)-5-(4-chlorophenyl)-2-(morpholin-4-ylmethyl)-2,4-dihydro-3H-1,2,4-triazole-3-thione]
p/t, number of animals protected against MES-induced seizures / number tested [1, 2]: 0/8
p/t, number of animals protected against MES-induced seizures / number tested [1, 3]: 0/8
p/t, number of animals protected against MES-induced seizures / number tested [1, 4]: 0/8
p/t, number of animals protected against MES-induced seizures / number tested [1, 5]: 0/8
responders at 300 mg/kg [1, 6]: 0%
responders at 300 mg/kg [1, 7]: 0%
responders at 300 mg/kg [1, 8]: 0%
responders at 300 mg/kg [1, 9]: 0%
